Measurements: patent publication US10499640B2, “Herbicidal compounds” (SYNGENTA PARTICIPATIONS AG, priority 2014, dated 2019)

Columns and labels:
Type in all cases: in vivo
Zea mays (ZEAMX) [1] = assay: Pre-emergence herbicidal activity, glasshouse pot test; details: Rate 1000 g/Ha; sprayed one day after sowing; evaluated after 13 days; scale 0-5
Experimental: (§1) Seeds of a variety of test species were sown in standard soil in pots. After cultivation for one day (pre-emergence) under controlled conditions in a glasshouse (at 24/16° C., day/night; 14 hours light; 65% humidity), the plants were sprayed with an aqueous spray solution derived from the formulation of the technical active ingredient in acetone/water (50:50) solution containing 0.5% Tween 20 (polyoxyethelyene sorbitan monolaurate, CAS RN 9005-64-5). The test plants were then grown in a glasshouse under controlled conditions (at 24/16° C., day/night; 14 hours light; 65% humidity) and watered twice daily. After 13 days, the test was evaluated (5=total damage to plant; 0=no damage to plant).

[2] = tested on: Amaranthus retroflexus (AMARE); assay: as above; design: key: 5=total damage to plant; 0=no damage to plant; details: Rate 1000 g/Ha; sprayed one day after sowing; evaluated after 13 days; scale 0-5
Experimental: as §1

Setaria faberi (SETFA) [3] = assay: as above; design: key: 5=total damage to plant; 0=no damage to plant; details: Rate 1000 g/Ha; sprayed one day after sowing; evaluated after 13 days; scale 0-5
Experimental: as §1

[4] = tested on: Echinochloa crus-galli (ECHCG); assay: as above; design: key: 5=total damage to plant; 0=no damage to plant; details: Rate 1000 g/Ha; sprayed one day after sowing; evaluated after 13 days; scale 0-5
Experimental: as §1

[5] = tested on: Alopecurus myosuroides (ALOMY); assay: as above; design: key: 5=total damage to plant; 0=no damage to plant; details: Rate 1000 g/Ha; sprayed one day after sowing; evaluated after 13 days; scale 0-5
Experimental: as §1

[6] = tested on: Abutilon theophrasti (ABUTH); assay: as above; design: key: 5=total damage to plant; 0=no damage to plant; details: Rate 1000 g/Ha; sprayed one day after sowing; evaluated after 13 days; scale 0-5
Experimental: as §1

[7] = tested on: Amaranthus retroflexus (AMARE); assay: Post-emergence herbicidal activity, glasshouse pot test; design: key: 5=total damage to plant; 0=no damage to plant; details: Rate 1000 g/Ha; sprayed after 8 days cultivation; evaluated after 13 days; scale 0-5
Experimental: (§2) Seeds of a variety of test species were sown in standard soil in pots. After 8 days cultivation (post-emergence) under controlled conditions in a glasshouse (at 24/16° C., day/night; 14 hours light; 65% humidity), the plants were sprayed with an aqueous spray solution derived from the formulation of the technical active ingredient in acetone/water (50:50) solution containing 0.5% Tween 20 (polyoxyethelyene sorbitan monolaurate, CAS RN 9005-64-5). The test plants were then grown in a glasshouse under controlled conditions (at 24/16° C., day/night; 14 hours light; 65% humidity) and watered twice daily. After 13 days, the test was evaluated (5=total damage to plant; 0=no damage to plant).

Setaria faberi (SETFA) [8] = assay: as above; design: key: 5=total damage to plant; 0=no damage to plant; details: Rate 1000 g/Ha; sprayed after 8 days cultivation; evaluated after 13 days; scale 0-5
Experimental: as §2

Zea mays (ZEAMX) [9] = assay: as above; design: key: 5=total damage to plant; 0=no damage to plant; details: Rate 1000 g/Ha; sprayed after 8 days cultivation; evaluated after 13 days; scale 0-5
Experimental: as §2

[10] = tested on: Echinochloa crus-galli (ECHCG); assay: as above; design: key: 5=total damage to plant; 0=no damage to plant; details: Rate 1000 g/Ha; sprayed after 8 days cultivation; evaluated after 13 days; scale 0-5
Experimental: as §2

[11] = tested on: Alopecurus myosuroides (ALOMY); assay: as above; design: key: 5=total damage to plant; 0=no damage to plant; details: Rate 1000 g/Ha; sprayed after 8 days cultivation; evaluated after 13 days; scale 0-5
Experimental: as §2

[12] = tested on: Abutilon theophrasti (ABUTH); assay: as above; design: key: 5=total damage to plant; 0=no damage to plant; details: Rate 1000 g/Ha; sprayed after 8 days cultivation; evaluated after 13 days; scale 0-5
Experimental: as §2

| SMILES | ZEAMX damage score, application pre-emergence (Zea mays (ZEAMX) [1]) | AMARE damage score, application pre-emergence [2] | SETFA damage score, application pre-emergence (Setaria faberi (SETFA) [3]) | ECHCG damage score, application pre-emergence [4] | ALOMY damage score, application pre-emergence [5] | ABUTH damage score, application pre-emergence [6] | AMARE damage score, application post-emergence [7] | SETFA damage score, application post-emergence (Setaria faberi (SETFA) [8]) | ZEAMX damage score, application post-emergence (Zea mays (ZEAMX) [9]) | ECHCG damage score, application post-emergence [10] | ALOMY damage score, application post-emergence [11] | ABUTH damage score, application post-emergence [12] |
| --- | --- | --- | --- | --- | --- | --- | --- | --- | --- | --- | --- | --- |
| CC1C(O)N(c2cc(C(C)(C)F)on2)C(=O)N1C (stereo not shown) [Compound A2, 1-[5-(1-fluoro-1-methyl-ethyl)isoxazol-3-yl]-5-hydroxy-3,4-dimethyl-imidazolidin-2-one] | 2 | 5 | 4 | 4 | 4 | 5 | 5 | 5 | 5 | 5 | 5 | 5 |
| COCC1C(O)N(c2cc(C(C)(C)OC)on2)C(=O)N1C (stereo not shown) [Compound A15] | 2 | 5 | 5 | 5 | – | 5 | 5 | 5 | 3 | 5 | – | 5 |
| COC(C)(C)c1cc(N2C(=O)N(C)[C@H](C)C2O)no1 (stereo partly shown) [Compound A12] | 3 | 5 | 5 | 5 | – | 5 | 5 | 5 | 4 | 5 | – | 5 |
| C[C@@H]1C(O)N(c2cc(C(C)(C)F)no2)C(=O)N1C (stereo partly shown) [Compound A20] | 3 | 5 | 4 | 5 | – | 5 | 5 | 5 | 4 | 5 | – | 5 |
| CC(C)(C)c1cc(N2C(=O)N3COCC3C2O)no1 (stereo not shown) [Compound A21] | 3 | 5 | 5 | 5 | – | 5 | 5 | 5 | 4 | 5 | – | 5 |
| CN1CC(O)N(c2cc(C(C)(C)F)no2)C1=O (stereo not shown) [Compound A16] | 2 | 5 | 5 | 5 | – | 5 | 5 | 5 | 5 | 5 | – | 5 |
| CCOC1C(O)N(c2cc(C(C)(C)F)no2)C(=O)N1C (stereo not shown) [Compound A19] | 2 | 5 | 4 | 5 | – | 4 | 5 | 5 | 4 | 5 | – | 5 |
| CON1C(=O)N(c2cc(C(C)(C)F)no2)C(O)C1C (stereo not shown) [Compound A18] | 2 | 5 | 5 | 5 | – | 5 | 5 | 5 | 4 | 5 | – | 5 |
| C#CCN1C(=O)N(c2cc(C(C)(C)C)on2)C(O)C1C (single isomer, unassigned) [Compound A22] | 3 | 5 | 5 | 5 | – | 5 | 5 | 5 | 5 | 5 | – | 5 |
| CC(C)(C)c1cc(N2C(=O)N3CCCC3C2O)no1 (stereo not shown) [Compound A25] | 4 | 5 | 4 | 5 | – | 5 | 5 | 5 | 5 | 5 | – | 5 |
| CON1C(=O)N(c2cc(C(C)(C)OC)on2)C(O)C1C (stereo not shown) [Compound A13] | 2 | 5 | 5 | 5 | – | 5 | 5 | 5 | 4 | 5 | – | 5 |
